Measurements from PubChem BioAssay (NCI).
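Abbreviation: GI50, concentration required for 50% inhibition of growth. The concentration for full growth arrest is given as TGI.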

Assays:
Experiment in all cases: growth of human tumour cells (NCI), 384-well format
HCT-116 colon = tested on: HCT-116 colon
NCI-H460 NSCLC = tested on: NCI-H460 NSCLC
PC-3 prostate = tested on: PC-3 prostate
BT-549 breast = tested on: BT-549 breast
TK-10 renal = tested on: TK-10 renal
LOX IMVI melanoma = tested on: LOX IMVI melanoma
SNB-19 CNS = tested on: SNB-19 CNS
SF-539 CNS = tested on: SF-539 CNS
OVCAR-4 ovarian = tested on: OVCAR-4 ovarian
OVCAR-8 ovarian = tested on: OVCAR-8 ovarian
A549 NSCLC = tested on: A549 NSCLC
SK-OV-3 ovarian = tested on: SK-OV-3 ovarian
NCI-H226 lung = tested on: NCI-H226 lung
HOP-62 NSCLC = tested on: HOP-62 NSCLC
K-562 leukemia = tested on: K-562 leukemia
MOLT-4 leukemia = tested on: MOLT-4 leukemia
MDA-MB-231 breast = tested on: MDA-MB-231 breast
SN12C renal = tested on: SN12C renal
SK-MEL-5 melanoma = tested on: SK-MEL-5 melanoma
HCT-15 colon = tested on: HCT-15 colon
NCI-H322M lung = tested on: NCI-H322M lung
RXF 393 renal = tested on: RXF 393 renal
MALME-3M melanoma = tested on: MALME-3M melanoma
ACHN renal = tested on: ACHN renal
SF-268 CNS = tested on: SF-268 CNS
RPMI-8226 leukemia = tested on: RPMI-8226 leukemia
M14 melanoma = tested on: M14 melanoma
NCI/ADR-RES ovarian = tested on: NCI/ADR-RES ovarian
U251 glioblastoma = tested on: U251 glioblastoma
T-47D breast = tested on: T-47D breast
HCC-2998 colon = tested on: HCC-2998 colon
NCI-H23 lung = tested on: NCI-H23 lung
UO-31 renal = tested on: UO-31 renal
UACC-257 melanoma = tested on: UACC-257 melanoma
A498 renal = tested on: A498 renal
SK-MEL-28 melanoma = tested on: SK-MEL-28 melanoma
MCF7 breast = tested on: MCF7 breast
SW-620 colon = tested on: SW-620 colon
SNB-75 CNS = tested on: SNB-75 CNS
HOP-92 NSCLC = tested on: HOP-92 NSCLC
OVCAR-3 ovarian = tested on: OVCAR-3 ovarian
CCRF-CEM leukemia = tested on: CCRF-CEM leukemia
786-0 renal = tested on: 786-0 renal
NCI-H522 lung = tested on: NCI-H522 lung
SF-295 CNS = tested on: SF-295 CNS
CAKI-1 renal = tested on: CAKI-1 renal
HT29 colon = tested on: HT29 colon
MDA-MB-468 breast = tested on: MDA-MB-468 breast
SR leukemia = tested on: SR leukemia
UACC-62 melanoma = tested on: UACC-62 melanoma
IGROV1 ovarian = tested on: IGROV1 ovarian
HS 578T breast = tested on: HS 578T breast
DU-145 prostate = tested on: DU-145 prostate
MDA-MB-435 melanoma = tested on: MDA-MB-435 melanoma
COLO 205 colon = tested on: COLO 205 colon
EKVX NSCLC = tested on: EKVX NSCLC
KM12 colon = tested on: KM12 colon
HL-60(TB) leukemia = tested on: HL-60(TB) leukemia

`CN(C)C(=O)[C@H](O)[C@H](Cc1ccccc1)NC(=O)c1cc2cc(Cl)ccc2[nH]1` was tested, and the GI50 (HCT-116 colon) was 22 µM, the TGI (HCT-116 colon) was 66.5 µM and the GI50 (NCI-H460 NSCLC) was 19.2 µM. For the same compound, the TGI (NCI-H460 NSCLC) was 36.2 µM, the GI50 (PC-3 prostate) was 21.3 µM and the TGI (PC-3 prostate) was 46.7 µM. For the same compound, the GI50 (BT-549 breast) was 20.5 µM, the TGI (BT-549 breast) was 47.8 µM and the GI50 (TK-10 renal) was 25.1 µM. For the same compound, the TGI (TK-10 renal) was 67.9 µM, the GI50 (LOX IMVI melanoma) was 20.3 µM and the TGI (LOX IMVI melanoma) was 36.1 µM. It also gave a GI50 (SNB-19 CNS) of 34.8 µM, a TGI (SNB-19 CNS) of over 100 µM and a GI50 (SF-539 CNS) of 28.3 µM. The TGI (SF-539 CNS) was 72.3 µM, the GI50 (OVCAR-4 ovarian) was 32 µM and the TGI (OVCAR-4 ovarian) was 89.9 µM. For the same compound, the GI50 (OVCAR-8 ovarian) was 36.4 µM, the TGI (OVCAR-8 ovarian) was over 100 µM and the GI50 (A549 NSCLC) was 27.3 µM. It also gave a TGI (A549 NSCLC) of 77 µM, a GI50 (SK-OV-3 ovarian) of 32.9 µM and a TGI (SK-OV-3 ovarian) of over 100 µM. The GI50 (NCI-H226 lung) was 23.1 µM, the TGI (NCI-H226 lung) was 57.5 µM and the GI50 (HOP-62 NSCLC) was 22.6 µM. For the same compound, the TGI (HOP-62 NSCLC) was 51.7 µM, the GI50 (K-562 leukemia) was 20.2 µM and the TGI (K-562 leukemia) was 44.9 µM. For the same compound, the GI50 (MOLT-4 leukemia) was 14.4 µM, the TGI (MOLT-4 leukemia) was 27.7 µM and the GI50 (MDA-MB-231 breast) was 27 µM. It also gave a TGI (MDA-MB-231 breast) of over 100 µM, a GI50 (SN12C renal) of 25.9 µM and a TGI (SN12C renal) of 77 µM. The GI50 (SK-MEL-5 melanoma) was 15.6 µM, the TGI (SK-MEL-5 melanoma) was 29.4 µM and the GI50 (HCT-15 colon) was 27.5 µM. It also gave a TGI (HCT-15 colon) of 74.7 µM, a GI50 (NCI-H322M lung) of 28.1 µM and a TGI (NCI-H322M lung) of 67.7 µM. For the same compound, the GI50 (RXF 393 renal) was 20.7 µM, the TGI (RXF 393 renal) was 54.8 µM and the GI50 (MALME-3M melanoma) was 21.2 µM. For the same compound, the TGI (MALME-3M melanoma) was 55.4 µM, the GI50 (ACHN renal) was 28.4 µM and the TGI (ACHN renal) was 74.3 µM. It also gave a GI50 (SF-268 CNS) of 22.2 µM, a TGI (SF-268 CNS) of 50.2 µM and a GI50 (RPMI-8226 leukemia) of 13.3 µM. The TGI (RPMI-8226 leukemia) was 26.3 µM, the GI50 (M14 melanoma) was 23.4 µM and the TGI (M14 melanoma) was 55.6 µM. The GI50 (NCI/ADR-RES ovarian) was 27.3 µM, the TGI (NCI/ADR-RES ovarian) was 70.6 µM and the GI50 (U251 glioblastoma) was 32.7 µM. For the same compound, the TGI (U251 glioblastoma) was 96.8 µM, the GI50 (T-47D breast) was 26.9 µM and the TGI (T-47D breast) was 99.6 µM. The GI50 (HCC-2998 colon) was 15.4 µM, the TGI (HCC-2998 colon) was 31.8 µM and the GI50 (NCI-H23 lung) was 28.1 µM. The TGI (NCI-H23 lung) was 77.5 µM, the GI50 (UO-31 renal) was 31.1 µM and the TGI (UO-31 renal) was 92 µM. It also gave a GI50 (UACC-257 melanoma) of 20.5 µM, a TGI (UACC-257 melanoma) of 37 µM and a GI50 (A498 renal) of 26.7 µM. It also gave a TGI (A498 renal) of 61 µM, a GI50 (SK-MEL-28 melanoma) of 31.2 µM and a TGI (SK-MEL-28 melanoma) of 88.4 µM. The GI50 (MCF7 breast) was 17.8 µM, the TGI (MCF7 breast) was 43 µM and the GI50 (SW-620 colon) was 25.3 µM. The TGI (SW-620 colon) was 57.1 µM, the GI50 (SNB-75 CNS) was 31.2 µM and the TGI (SNB-75 CNS) was over 100 µM. The GI50 (HOP-92 NSCLC) was 26.9 µM, the TGI (HOP-92 NSCLC) was 65.8 µM and the GI50 (OVCAR-3 ovarian) was 16.5 µM. For the same compound, the TGI (OVCAR-3 ovarian) was 31.5 µM, the GI50 (CCRF-CEM leukemia) was 17.9 µM and the TGI (CCRF-CEM leukemia) was 32.7 µM. The GI50 ([…]-0 renal) was 20.5 µM, the TGI (786-0 renal) was 51.1 µM and the GI50 (NCI-H522 lung) was 22.6 µM. The TGI (NCI-H522 lung) was 58.2 µM, the GI50 (SF-295 CNS) was 21.8 µM and the TGI (SF-295 CNS) was 44.2 µM. It also gave a GI50 (CAKI-1 renal) of 25.1 µM, a TGI (CAKI-1 renal) of 77.8 µM and a GI50 (HT29 colon) of 21.8 µM. It also gave a TGI (HT29 colon) of 49.1 µM, a GI50 (MDA-MB-468 breast) of 19.1 µM and a TGI (MDA-MB-468 breast) of 36.1 µM. It also gave a GI50 (SR leukemia) of 19.5 µM, a TGI (SR leukemia) of 33.7 µM and a GI50 (UACC-62 melanoma) of 18.4 µM. It also gave a TGI (UACC-62 melanoma) of 41 µM, a GI50 (IGROV1 ovarian) of 25.8 µM and a TGI (IGROV1 ovarian) of 64.8 µM. For the same compound, the GI50 (HS 578T breast) was 25.6 µM, the TGI (HS 578T breast) was 59.3 µM and the GI50 (DU-145 prostate) was 30.7 µM. The TGI (DU-145 prostate) was 91.7 µM, the GI50 (MDA-MB-435 melanoma) was 38.3 µM and the TGI (MDA-MB-435 melanoma) was over 100 µM. For the same compound, the GI50 (COLO 205 colon) was 41.3 µM, the TGI (COLO 205 colon) was over 100 µM and the GI50 (EKVX NSCLC) was 32.7 µM. The TGI (EKVX NSCLC) was 97.3 µM, the GI50 (KM12 colon) was 20.8 µM and the TGI (KM12 colon) was 50.9 µM. For the same compound, the GI50 (HL-60(TB) leukemia) was 16.6 µM and the TGI (HL-60(TB) leukemia) was 30.5 µM.
